{"source": "patent US20230053540A1", "about": "“TREATMENT OF LIVER INJURY” (Massachusetts Institute of Technology, priority 2019, published 2023)", "tested_on": "hepatocytes", "assay": "Seq-Well scRNA-Seq of hepatocytes after APAP overdose (signature scores, DEG vs untreated)", "assay_type": "in vivo, mouse", "conditions": "APAP vs UT, composite DEG", "data": [{"smiles": "CC(=O)Nc1ccc(O)cc1", "note": "[APAP, acetaminophen]", "values": [{"measurement": "Apoa5 logFC", "value": 0.3232}, {"measurement": "Apob logFC", "value": 0.5802}, {"measurement": "Apoc3 logFC", "value": "−0.7688"}, {"measurement": "Apoc4 logFC", "value": "−1.002"}, {"measurement": "Apom logFC", "value": "−0.3024"}, {"measurement": "Aqp9 logFC", "value": "−0.3109"}, {"measurement": "Arg1 logFC", "value": 0.3179}, {"measurement": "Arhgap5 logFC", "value": 0.2952}, {"measurement": "Arhgef12 logFC", "value": 0.5908}, {"measurement": "Arl5a logFC", "value": 0.2648}, {"measurement": "Arl6ip1 logFC", "value": "−0.3649"}, {"measurement": "Arpc1b logFC", "value": 0.2597}, {"measurement": "Arrdc3 logFC", "value": 0.5269}, {"measurement": "Asgr2 logFC", "value": 0.3064}, {"measurement": "Asl logFC", "value": 0.5586}, {"measurement": "Ass1 logFC", "value": "−0.3144"}, {"measurement": "Atf5 logFC", "value": 0.329}, {"measurement": "Atf6 logFC", "value": 0.3778}, {"measurement": "Atp1a1 logFC", "value": 0.4191}, {"measurement": "Atp1b1 logFC", "value": 0.3702}, {"measurement": "Atp2a2 logFC", "value": 0.495}, {"measurement": "Atp2b1 logFC", "value": 0.3321}, {"measurement": "Atp5b logFC", "value": 0.2917}, {"measurement": "Atp5c1 logFC", "value": "−0.3476"}, {"measurement": "Atp5g3 logFC", "value": "−0.3002"}, {"measurement": "Atp5k logFC", "value": "−0.4773"}, {"measurement": "Atp5o logFC", "value": "−0.3316"}, {"measurement": "Atp6v1f logFC", "value": "−0.2529"}, {"measurement": "Atp11c logFC", "value": 0.2605}, {"measurement": "Atp13a3 logFC", "value": 0.3945}, {"measurement": "Atp5h logFC", "value": "−0.6398"}, {"measurement": "Atp5d logFC", "value": 0.2501}, {"measurement": "Atxn7l3b logFC", "value": 0.3062}, {"measurement": "Azin1 logFC", "value": 0.2701}, {"measurement": "B2m logFC", "value": "−0.418"}, {"measurement": "B4galt5 logFC", "value": 0.4763}, {"measurement": "BC025446 logFC", "value": 0.2942}, {"measurement": "BC089597 logFC", "value": 0.2622}, {"measurement": "Baat logFC", "value": "−0.3086"}, {"measurement": "Bach1 logFC", "value": 0.8323}, {"measurement": "Bbox1 logFC", "value": "−0.4082"}, {"measurement": "Bche logFC", "value": 0.3134}, {"measurement": "Bckdha logFC", "value": "−0.35"}, {"measurement": "Bcl2l1 logFC", "value": 0.7751}, {"measurement": "Bet1 logFC", "value": "−0.2966"}, {"measurement": "Bfar logFC", "value": 0.2903}, {"measurement": "Bhmt2 logFC", "value": "−0.3114"}, {"measurement": "Bhmt logFC", "value": "−0.5202"}, {"measurement": "Birc6 logFC", "value": 0.3444}, {"measurement": "Bnip3 logFC", "value": 0.4032}, {"measurement": "Bola3 logFC", "value": "−0.3689"}, {"measurement": "Bphl logFC", "value": "−0.4075"}, {"measurement": "Bptf logFC", "value": 0.3245}, {"measurement": "Brap logFC", "value": 0.3492}, {"measurement": "Brd2 logFC", "value": 0.5715}, {"measurement": "Bsg logFC", "value": "−0.3152"}, {"measurement": "Bst2 logFC", "value": "−0.3156"}, {"measurement": "Btaf1 logFC", "value": 0.2755}, {"measurement": "Bzw1 logFC", "value": 0.2948}, {"measurement": "C1qb logFC", "value": 0.6817}, {"measurement": "C3 logFC", "value": 0.4495}, {"measurement": "C4b logFC", "value": 0.2833}, {"measurement": "C8b logFC", "value": "−0.3602"}, {"measurement": "C8g logFC", "value": "−0.6545"}, {"measurement": "C9 logFC", "value": "−0.4271"}, {"measurement": "C130074G19Rik logFC", "value": "−0.3563"}, {"measurement": "C230081A13Rik logFC", "value": 0.427}, {"measurement": "Cald1 logFC", "value": 0.3737}, {"measurement": "Calr logFC", "value": 0.5551}, {"measurement": "Camk2n1 logFC", "value": 0.2501}, {"measurement": "Caprin1 logFC", "value": 0.2628}, {"measurement": "Car3 logFC", "value": "−1.036"}, {"measurement": "Car5a logFC", "value": "−0.3088"}, {"measurement": "Cars logFC", "value": 0.3158}, {"measurement": "Cast logFC", "value": 0.4009}, {"measurement": "Cbr1 logFC", "value": 0.2847}, {"measurement": "Ccbl1 logFC", "value": "−0.3649"}, {"measurement": "Ccl6 logFC", "value": 0.7891}, {"measurement": "Ccs logFC", "value": "−0.4267"}, {"measurement": "Cd1d1 logFC", "value": 0.2912}, {"measurement": "Cd5l logFC", "value": 0.6935}, {"measurement": "Cd14 logFC", "value": 0.3621}, {"measurement": "Cd163 logFC", "value": 0.4408}, {"measurement": "Cdkn1a logFC", "value": 1.215}, {"measurement": "Cebpa logFC", "value": "−0.3916"}, {"measurement": "Cela1 logFC", "value": "−0.2723"}, {"measurement": "Cep85l logFC", "value": 0.2779}, {"measurement": "Cers6 logFC", "value": 0.5328}, {"measurement": "Ces1b logFC", "value": 0.373}, {"measurement": "Ces1f logFC", "value": "−0.3126"}, {"measurement": "Ces3a logFC", "value": "−0.5253"}, {"measurement": "Ces1d logFC", "value": "−0.4289"}, {"measurement": "Cfhr1 logFC", "value": "−0.3253"}, {"measurement": "Chac2 logFC", "value": "−0.2865"}, {"measurement": "Chd1 logFC", "value": 0.3788}, {"measurement": "Chka logFC", "value": 1.375}, {"measurement": "Chpt1 logFC", "value": 0.3566}, {"measurement": "Cideb logFC", "value": "−0.3684"}, {"measurement": "Cidec logFC", "value": 0.2994}, {"measurement": "Cisd1 logFC", "value": "−0.3727"}, {"measurement": "Cldn2 logFC", "value": "−0.2511"}, {"measurement": "Cldn3 logFC", "value": "−0.3145"}, {"measurement": "Clec4f logFC", "value": 1.108}, {"measurement": "Clec4d logFC", "value": 0.2636}, {"measurement": "Cnpy2 logFC", "value": "−0.3729"}, {"measurement": "Coa6 logFC", "value": "−0.4114"}, {"measurement": "Commd6 logFC", "value": "−0.3645"}, {"measurement": "Comt logFC", "value": "−0.3684"}, {"measurement": "Copb2 logFC", "value": 0.2839}, {"measurement": "Copz1 logFC", "value": 0.2577}, {"measurement": "Coq9 logFC", "value": "−0.3479"}, {"measurement": "Coro1c logFC", "value": 0.3067}, {"measurement": "Cox4i1 logFC", "value": "−0.516"}, {"measurement": "Cox5a logFC", "value": 0.4024}, {"measurement": "Cox6a1 logFC", "value": "−0.4872"}, {"measurement": "Cox6b1 logFC", "value": "−0.362"}, {"measurement": "Cox6c logFC", "value": "−0.8443"}, {"measurement": "Cox8a logFC", "value": 0.4417}, {"measurement": "Cpne3 logFC", "value": 0.258}, {"measurement": "Cpt1a logFC", "value": 0.3729}, {"measurement": "Crat logFC", "value": 0.2556}, {"measurement": "Creb3l2 logFC", "value": 0.4272}, {"measurement": "Creb3l3 logFC", "value": 0.2757}, {"measurement": "Creg1 logFC", "value": 0.2768}, {"measurement": "Creld2 logFC", "value": 0.6087}, {"measurement": "Csad logFC", "value": "−0.5598"}, {"measurement": "Ctage5 logFC", "value": 0.3287}, {"measurement": "Cth logFC", "value": "−0.5109"}, {"measurement": "Ctnnb1 logFC", "value": 0.2957}, {"measurement": "Ctsa logFC", "value": 0.252}, {"measurement": "Ctsb logFC", "value": 0.5213}, {"measurement": "Ctsh logFC", "value": 0.3245}, {"measurement": "Ctss logFC", "value": 0.7642}, {"measurement": "Cvp2e1 logFC", "value": "−2.319"}, {"measurement": "Cxcl1 logFC", "value": 0.4498}, {"measurement": "Cxcl12 logFC", "value": "−0.3058"}, {"measurement": "Cxcr2 logFC", "value": 0.4023}, {"measurement": "Cyp4f14 logFC", "value": "−0.2959"}, {"measurement": "Cyp4f15 logFC", "value": "−0.2998"}, {"measurement": "Cyp27a1 logFC", "value": "−0.3735"}, {"measurement": "D10Jhu81e logFC", "value": "−0.3957"}, {"measurement": "D10Wsu102e logFC", "value": 0.5878}, {"measurement": "D17Wsu92e logFC", "value": 0.372}, {"measurement": "Dbi logFC", "value": "−0.7164"}, {"measurement": "Ddah1 logFC", "value": "−0.312"}, {"measurement": "Ddb1 logFC", "value": 0.2778}, {"measurement": "Ddc logFC", "value": "−0.3608"}, {"measurement": "Ddx6 logFC", "value": 0.4443}, {"measurement": "Ddx27 logFC", "value": 0.2522}, {"measurement": "Decr1 logFC", "value": 0.4664}, {"measurement": "Decr2 logFC", "value": 0.4189}, {"measurement": "Dennd5b logFC", "value": 0.2935}, {"measurement": "Deptor logFC", "value": 0.2606}, {"measurement": "Derl2 logFC", "value": "−0.3317"}, {"measurement": "Dgat2 logFC", "value": "−0.3433"}, {"measurement": "Dhcr24 logFC", "value": 0.4238}, {"measurement": "Dhdh logFC", "value": "−0.3348"}, {"measurement": "Dhrs4 logFC", "value": "−0.3321"}, {"measurement": "Dhx9 logFC", "value": 0.3504}, {"measurement": "Dmgdh logFC", "value": 0.2658}, {"measurement": "Dnajb9 logFC", "value": 0.2586}, {"measurement": "Dnajb11 logFC", "value": 0.3154}, {"measurement": "Dnajc3 logFC", "value": 0.4564}, {"measurement": "Dnajc19 logFC", "value": "−0.316"}, {"measurement": "Dusp5 logFC", "value": 0.2964}, {"measurement": "Dync1h1 logFC", "value": 0.3796}, {"measurement": "Dync1li1 logFC", "value": 0.2624}, {"measurement": "Ebp logFC", "value": "−0.3553"}, {"measurement": "Ech1 logFC", "value": "−0.4291"}, {"measurement": "Echs1 logFC", "value": "−0.3316"}, {"measurement": "Eci1 logFC", "value": "−0.2764"}, {"measurement": "Eci2 logFC", "value": 0.311}, {"measurement": "Edem1 logFC", "value": 0.2869}, {"measurement": "Edf1 logFC", "value": "−0.3817"}, {"measurement": "Eef1a1 logFC", "value": 0.4393}, {"measurement": "Efhd2 logFC", "value": 0.5838}, {"measurement": "Egfr logFC", "value": 0.505}, {"measurement": "Egr1 logFC", "value": 0.5846}, {"measurement": "Ehhadh logFC", "value": "−0.2505"}, {"measurement": "Ei24 logFC", "value": 0.2573}, {"measurement": "Eif4b logFC", "value": 0.3682}, {"measurement": "Eif4g2 logFC", "value": 0.5597}, {"measurement": "Eif5 logFC", "value": 0.5763}, {"measurement": "Ell2 logFC", "value": 0.4172}, {"measurement": "Elovl2 logFC", "value": 0.4522}, {"measurement": "Elovl3 logFC", "value": "−0.676"}, {"measurement": "Ephx2 logFC", "value": "−0.3693"}, {"measurement": "Eprs logFC", "value": 0.3701}, {"measurement": "Erbb2ip logFC", "value": 0.3332}, {"measurement": "Erp44 logFC", "value": 0.2795}, {"measurement": "Esd logFC", "value": "−0.2808"}, {"measurement": "Ethe1 logFC", "value": "−0.3334"}, {"measurement": "Etnppl logFC", "value": 0.4967}, {"measurement": "Ets2 logFC", "value": 0.6956}, {"measurement": "F2 logFC", "value": 0.3213}, {"measurement": "F9 logFC", "value": 0.2568}, {"measurement": "F10 logFC", "value": 0.2791}, {"measurement": "F12 logFC", "value": 0.2567}, {"measurement": "Fah logFC", "value": 0.3025}, {"measurement": "Fam25c logFC", "value": "−0.2977"}, {"measurement": "Fam107b logFC", "value": 0.4633}, {"measurement": "Fam120a logFC", "value": 0.28}]}]}
